Tested on: sugarbeets
Assay: In-furrow sugar and/or fertilizer application on sugarbeets, Foxhome
Type: in vivo, sugarbeet
Details: for Recoverable Sugar / Sugarbeets / Yield Increase Compared to Check: in-furrow
Method: In addition to testing pre-planting application of sugar, additional in-furrow application of sugar during sugarbeet planting was conducted. This testing was conducted at the Foxhome location and included ten (10) separate treatments. These treatments included one (1) untreated check treatment in which no sugar was applied and constitutes the control element. The treatments included one (1) treatment in which only a conventional fertilizer (liquid ammonium phosphate commonly and hereafter referred to as “10-34-0”) was applied in-furrow. […] Four (4) treatments included the in-furrow application of concentrated raw sugar juice (hereafter “CONCRJ”) at varying rates and/or 10-34-0. Liquid sugar is essentially comprised of sucrose. […] Liquid sugar, concentrated raw juice and 10-34-0 were all mixed and diluted with water in a tank and a conventional sprayer was configured such that the liquid was sprayed so as to have the desired sugar and fertilizer equivalent. For the sugar applied at rates of three gallons per acre, the sugar mixture was equivalent to 25 pounds per acre of sugar. […] In each replication, the liquid was applied into the furrow during planting of the sugarbeet seeds. A summary of the in-furrow sugar beet testing is contained in Table 16 below: […]

[1] = sugar 3 gal/acre + 10-34-0 3 gal/acre
[2] = sugar 3 gal/acre, 10-34-0 0 gal/acre
[3] = sugar 5 gal/acre + 10-34-0 3 gal/acre
[4] = sugar 5 gal/acre, 10-34-0 0 gal/acre

OC[C@H]1O[C@@](CO)(O[C@H]2O[C@H](CO)[C@@H](O)[C@H](O)[C@H]2O)[C@@H](O)[C@@H]1O [LIQSUC, sucrose]
recoverable sugar compared to the check treatment and to 10-34-0 only (every in-furrow application of liquid sucrose): increase in recoverable sugar | recoverable sugar compared to the same amount of liquid sugar with no 10-34-0 (in-furrow liquid sucrose plus 10-34-0): increase in recoverable sugar | Recoverable Sugar [1]: 6437.113 Pounds/Acred | Sugarbeets [1]: 26.3981 Tons/Acre | Yield Increase Compared to Check [1]: 12.79% | Recoverable Sugar [2]: 5777.0474 Pounds/Acred | Sugarbeets [2]: 23.42 Tons/Acre | Yield Increase Compared to Check [2]: 1.23% | Recoverable Sugar [3]: 6262.2908 Pounds/Acred | Sugarbeets [3]: 25.66 Tons/Acre | Yield Increase Compared to Check [3]: 9.73% | Recoverable Sugar [4]: 5881.91 Pounds/Acred | Sugarbeets [4]: 24.38 Tons/Acre | Yield Increase Compared to Check [4]: 3.06%
